Patent US20250332162A1 (priority 2022, published 2025)
Read-outs that look alike come from different tables or passages of the source.

What was measured:
[1] = system: Flu virus strain A/Puerto Rico/8/1934 (PR8); assay: microbe, parasite or virus in culture; format: cell-based; conditions: unidentified influenza virus, PR8, MDCK, MDCK cells
[2] = Solubility on dilution of 10 mM DMSO stocks; format: physicochemical; conditions: 10 mM stocks in DMSO
Protocol: Antiviral compounds: Favipiravir, Mycophenolate, and Viramidine were prepared as 10 mM stocks in dimethyl sulfoxide (DMSO) and were soluble when diluted in various reaction mixtures and cell culture media. […] Also, combination of Favipiravir with each of the other drugs were tested.

[3] = 48 h, read-out: estimated IC50 when used alone, Example A, PR8 Flu virus 0.01 MOI, 48 hours
[4] = read-out: IC50, inhibition of influenza virus cytopathic activity, drug alone, FIG. 1 experiment, influenza A/PR8 m.o.i. 0.01, pre-treated 1 h, two days
[5] = read-out: IC50, inhibition of influenza virus cytopathic activity, drug alone, FIG. 7 experiment, influenza m.o.i. 0.01, pre-treated 1 h, two days

SMILES | IC50 [1, 3] [µM] | IC50 [1, 4] [µM] | IC50 [1, 5] [µM] | solubility when diluted in reaction mixtures and cell culture media [2]
NC(=O)c1nc(F)c[nH]c1=O [Favipiravir, favipiravir] | 25 | 26.5 | 25.1 | soluble
COc1c(C)c2c(c(O)c1C/C=C(\C)CCC(=O)O)C(=O)OC2 [Mycophenolate] | 1.42 | 1.4 |  | soluble
N=C(N)c1ncn([C@@H]2O[C@H](CO)[C@@H](O)[C@H]2O)n1 [Viramidine, viramidine] | 94.7 |  | 94.7 | soluble
